Source: patent US9365721B2, “Polycyclo dyes and use thereof” (VISEN MEDICAL, INC., priority 2007, dated 2016)

Experiments:
[1] = Fluorescence emission maximum (Em. max) of the fluorochrome in solvent; type: physicochemical
[2] = Absorption maximum (Abs. max) of the fluorochrome in solvent; type: physicochemical

| SMILES | Em. max ([1]; MeOH) | Em. max ([1]; water) | Abs. max ([2]; MeOH) | Abs. max ([2]; water) |
| --- | --- | --- | --- | --- |
| CN1C2CCC1/C(=C\C=C1\N(CCCCS(=O)(=O)O)c3ccccc3C1(C)C)C(Cl)=C2/C=C/C1=[N+](CCCCS(=O)(=O)O)c2ccccc2C1(C)C (centres unmarked) [Compound 11] | 790 nm | 775 nm | 770 nm | 760 nm |
| CN1C2CCC1/C(=C\C=C1\N(CCCCS(=O)(=O)O)c3ccccc3C1(C)C)C(SCCC(=O)O)=C2/C=C/C1=[N+](CCCCS(=O)(=O)O)c2ccccc2C1(C)C (centres unmarked) [Compound 12] | 810 nm | 787 nm | 780 nm | 768 nm |
| CN1C2CCC1/C(=C\C=C1\N(CCCS(=O)(=O)O)c3ccc(S(=O)(=O)O)cc3C1(C)C)C(SCCC(=O)O)=C2/C=C/C1=[N+](CCCS(=O)(=O)O)c2ccc(S(=O)(=O)O)cc2C1(C)C (centres unmarked) [Compound 13] | 810 nm | 797 nm | 788 nm | 777 nm |
| CCN1/C(=C/C=C2C(Cl)=C(/C=C/C3=[N+](CC)c4ccc5c(S(=O)(=O)O)cc(S(=O)(=O)O)cc5c4C3(C)C)C3CCC/2N3C)C(C)(C)c2c1ccc1c(S(=O)(=O)O)cc(S(=O)(=O)O)cc21 (centres unmarked) [Compound 38] | 835 nm | 827 nm | 814 nm | 805 nm |
| CN1C2CCC1/C(=C\C=C1\N(CCCS(=O)(=O)O)c3ccc(S(=O)(=O)O)cc3C1(C)C)C(Cl)=C2/C=C/C1=[N+](CCCS(=O)(=O)O)c2ccc(S(=O)(=O)O)cc2C1(C)C (centres unmarked) [Compound 39] | 802 nm | 788 nm | 780 nm | 768 nm |
